We go through 22 compounds from patent US9266842B2, “Anti-malarial agents” (UNIVERSITY OF CAPE TOWN, priority 2012, dated 2016).

One experiment has as its system P. falciparum K1. Put plainly: Anti-malarial in vitro efficacy, assay 1, P. falciparum K1. It counts as cell-based. To be noted: Plasmodium falciparum, strain K1. How it is done:
(§1) The ability of aminopyrazine derivatives according to the invention to kill P. falciparum parasites and/or to inhibit its proliferation is tested as follows:
(§2) The protocol used was as described in the supplemental material to Fiddock et al., 2004, Nature Reviews Drug Discovery, (3), p 509.
(§3) EC50s (ng/ml) are reported in Table 3 below against different strains of P. falciparum K1, NF54 (assay 1).

The test system of a further experiment is P. falciparum NF54. Put plainly: Anti-malarial in vitro efficacy, assay 1, P. falciparum NF54. It counts as cell-based. To be noted: Plasmodium falciparum, strain NF54. As to the method: as §1, §2, §3
In the next experiment the test system is parasitemia. The experiment can be described thus: Anti-malarial in vivo efficacy, inhibition of parasitemia after 4 daily oral doses. To be noted: for inhibition in vivo at 3 mg/kg: read-out: percentages of inhibition of parasitemia, 3 mg/kg po; for inhibition in vivo at 10 mg/kg: read-out: percentages of inhibition of parasitemia, 10 mg/kg po. The text has this:
The ability of aminopyrazine derivatives according to the invention to show antimalarial efficacy in vivo can be tested by using the protocols described in the supplemental material to Fidock et al., 2004, Nature Reviews Drug Discovery, (3), p 509.

Converted amounts (≈) assume the structure as drawn.

By EC50 is commonly meant the concentration at which the effect is half-maximal.

Compound `COc1ccc(-c2nc(-c3ccc(S(C)(=O)=O)cc3)cnc2N)cn1` [Compound 1, 3-(6-methoxypyridin-3-yl)-5-(4-(methylsulfonyl)phenyl)pyrazin-2-amine] returned an EC50 in the experiment on P. falciparum K1 of 17 ng/mL (≈ 0.0477 µM).
In the case of `CS(=O)(=O)c1ccc(-c2cnc(N)c(-c3ccc(C(F)(F)F)cc3)n2)cc1` [Compound 2, 5-(4-(methylsulfonyl)phenyl)-3-(4-(trifluoromethyl)phenyl)pyrazin-2-amine], the EC50 with P. falciparum K1 was 4 ng/mL (≈ 0.0102 µM).
On the same count and under the same terms, the result for `CS(=O)(=O)c1ccc(-c2cnc(N)c(-c3ccc(C(F)(F)F)nc3)n2)cc1` [Compound 3, 5-(4-(methylsulfonyl)phenyl)-3-(6-(trifluoromethyl)pyridin-3-yl)pyrazin-2-amine] reads 4.8 ng/mL (≈ 0.0122 µM).
As for `NC(=O)c1ccc(-c2cnc(N)c(-c3ccc(C(F)(F)F)cc3)n2)cc1` [Compound 4, 4-(5-amino-6-(4-(trifluoromethyl)phenyl)pyrazin-2-yl)benzamide], a half-maximal response in the experiment with P. falciparum K1 (EC50) required 4.9 ng/mL (≈ 0.0137 µM). The concentration for a half-maximal effect (EC50) with P. falciparum NF54 was 5.7 ng/mL (≈ 0.0159 µM). In the experiment on parasitemia, the inhibition in vivo at 3 mg/kg stood at 99.9% and the inhibition in vivo at 10 mg/kg is 99.9%.
`NC(=O)c1ccc(-c2cnc(N)c(-c3ccc(C(F)(F)F)nc3)n2)cc1` [Compound 5, 4-(5-amino-6-(6-(trifluoromethyl)pyridin-3-yl)pyrazin-2-yl)benzamide] gave an EC50 with P. falciparum K1 of 5.8 ng/mL (≈ 0.0161 µM). Besides, the EC50 in the experiment with P. falciparum NF54 stood at 7.8 ng/mL (≈ 0.0217 µM). In the experiment on parasitemia, the inhibition in vivo at 3 mg/kg turned out to be 99.4% and the inhibition in vivo at 10 mg/kg is 99.9%.
The matching figures for `CN1CCN(C(=O)c2ccc(-c3cnc(N)c(-c4ccc(C(F)(F)F)cc4)n3)cc2)CC1` [Compound 6, (4-(5-amino-6-(4-(trifluoromethyl)phenyl)pyrazin-2-yl)phenyl)(4-methylpiperazin-1-yl) methanone]: 3 ng/mL (≈ 0.0068 µM), 3.5 ng/mL (≈ 0.00793 µM), 99.9% and 99.9%.
Taken in the same sequence, the figures for `CN1CCN(C(=O)c2ccc(-c3cnc(N)c(-c4ccc(C(F)(F)F)nc4)n3)cc2)CC1` [Compound 7, (4-(5-amino-6-(6-(trifluoromethyl)pyridin-3-yl)pyrazin-2-yl)phenyl)(4-methylpiperazin-1-yl)methanone] were 4.4 ng/mL (≈ 0.00994 µM), 4.4 ng/mL (≈ 0.00994 µM), 81% and 99.8%.
Regarding `Nc1ncc(-c2ccc(C(=O)N3CCNCC3)cc2)nc1-c1ccc(C(F)(F)F)nc1` [Compound 9, (4-(5-amino-6-(6-(trifluoromethyl)pyridin-3-yl)pyrazin-2-yl)phenyl)(piperazin-1-yl) methanone], the EC50 with P. falciparum K1 was determined as 4 ng/mL (≈ 0.00934 µM); with P. falciparum NF54, 4.6 ng/mL (≈ 0.0107 µM).
In the experiment on P. falciparum K1, `Nc1ncc(-c2ccc(C(=O)N3CCOCC3)cc2)nc1-c1ccc(C(F)(F)F)nc1` [Compound 10, (4-(5-amino-6-(6-(trifluoromethyl)pyridin-3-yl)pyrazin-2-yl)phenyl) (morpholino) methanone] registered a 50% effective concentration (EC50) of 4.1 ng/mL (≈ 0.00955 µM).
The same measure, in the same setting: the result for `Nc1ncc(-c2ccc(C(=O)N3CCOCC3)cc2)nc1-c1ccc(C(F)(F)F)cc1` [Compound 11, (4-(5-amino-6-(4-(trifluoromethyl)phenyl)pyrazin-2-yl)phenyl)(morpholino)methanone] reads 3.1 ng/mL (≈ 0.00724 µM).
`NC(=O)c1ccc(-c2cnc(N)c(-c3ccc(C(N)=O)cc3)n2)cc1` [Compound 15, 4,4′-(3-aminopyrazine-2,6-diyl) dibenzamide]: the EC50 in the experiment with P. falciparum K1 was 7.1 ng/mL (≈ 0.0213 µM); with P. falciparum NF54, 8.5 ng/mL (≈ 0.0255 µM).
Regarding `CC(C)(C)N1CCN(C(=O)c2ccc(-c3cnc(N)c(-c4ccc(C(F)(F)F)cc4)n3)cc2)CC1` [Compound 20, (4-(5-amino-6-(4-(trifluoromethyl)phenyl)pyrazin-2-yl)phenyl)(4-tert-butylpiperazin-1-yl)methanone], the EC50 in the experiment on P. falciparum K1 came to 5.5 ng/mL (≈ 0.0114 µM); in the experiment with P. falciparum NF54, 8.2 ng/mL (≈ 0.017 µM).
Taken in the same sequence, the figures for `Nc1ncc(-c2ccc(C(=O)N3CCC(O)CC3)cc2)nc1-c1ccc(C(F)(F)F)nc1` [Compound 22, (4-(5-amino-6-(6-(trifluoromethyl)pyridin-3-yl)pyrazin-2-yl)phenyl)(4-hydroxypiperidin-1-yl)methanone] were 4 ng/mL (≈ 0.00902 µM) and 4.5 ng/mL (≈ 0.0101 µM).
In the case of `Nc1ncc(-c2ccc(C(=O)N3CCCNCC3)cc2)nc1-c1ccc(C(F)(F)F)nc1` [Compound 26, (4-(5-amino-6-(6-(trifluoromethyl)pyridin-3-yl)pyrazin-2-yl)phenyl) (1,4-diazepan-1-yl)methanone], the EC50 with P. falciparum K1 was 4.3 ng/mL (≈ 0.00972 µM); with P. falciparum NF54, 5.9 ng/mL (≈ 0.0133 µM).
Taken in the same sequence, the figures for `Nc1ncc(-c2ccc(C(=O)N3CCC(N)C3)cc2)nc1-c1ccc(C(F)(F)F)nc1` (stereo not drawn) [Compound 28, (4-(5-amino-6-(6-(trifluoromethyl)pyridin-3-yl)pyrazin-2-yl)phenyl)(3-aminopyrrolidin-1-yl)methanone] were 10 ng/mL (≈ 0.0233 µM) and 17 ng/mL (≈ 0.0397 µM).
Taken in the same sequence, the figures for `Nc1ncc(-c2ccc(C(=O)N3CCC(N)C3)cc2)nc1-c1ccc(C(F)(F)F)cc1` (stereo not drawn) [Compound 29, (4-(5-amino-6-(4-(trifluoromethyl)phenyl)pyrazin-2-yl)phenyl)(3-aminopyrrolidin-1-yl)methanone] were 4.8 ng/mL (≈ 0.0112 µM) and 8.8 ng/mL (≈ 0.0206 µM).
Taken in the same sequence, the figures for `Nc1ncc(-c2ccc(C(=O)N3CCC(O)C3)cc2)nc1-c1ccc(C(F)(F)F)nc1` (stereo not drawn) [Compound 30, (4-(5-amino-6-(6-(trifluoromethyl)pyridin-3-yl)pyrazin-2-yl)phenyl)(3-hydroxypyrrolidin-1-yl)methanone] were 5.2 ng/mL (≈ 0.0121 µM) and 8.6 ng/mL (≈ 0.02 µM).
Consider `Nc1ncc(-c2ccc(C(=O)N3CCC(N)CC3)cc2)nc1-c1ccc(C(F)(F)F)nc1` [Compound 31, (4-(5-amino-6-(6-(trifluoromethyl)pyridin-3-yl)pyrazin-2-yl)phenyl)(4-aminopiperidinyl)methanone], for which the EC50 with P. falciparum K1 came to 7.6 ng/mL (≈ 0.0172 µM); in the experiment on P. falciparum NF54 it was 8.5 ng/mL (≈ 0.0192 µM).
The matching figures for `Nc1ncc(-c2ccc(C(=O)N3CCC(N)CC3)cc2)nc1-c1ccc(C(F)(F)F)cc1` [Compound 32, (4-(5-amino-6-(4-(trifluoromethyl)phenyl)pyrazin-2-yl)phenyl)(4-aminopiperidinyl)methanone]: 2.9 ng/mL (≈ 0.00657 µM) and 4.3 ng/mL (≈ 0.00974 µM).
As to `Nc1ncc(-c2ccc(S(=O)(=O)C3CC3)cc2)nc1-c1ccc(C(F)(F)F)nc1` [Compound 34, 5-(4-(cyclopropylsulfonyl)phenyl)-3-(6-(trifluoromethyl)pyridin-3-yl) pyrazin-2-amine], the response with P. falciparum K1 was half-maximal at 4 ng/mL (≈ 0.00951 µM) (EC50).
The compound `Nc1ncc(-c2ccc(C(=O)N3CC[C@@H](O)C3)cc2)nc1-c1ccc(C(F)(F)F)cc1` [Compound 35, (R)-(4-(5-amino-6-(4-(trifluoro-methyl)phenyl)pyrazin-2-yl)phenyl)(3-hydroxypyrrolidin-1-yl) methanone] registered an EC50 in the experiment on P. falciparum NF54 of 3.2 ng/mL (≈ 0.00747 µM). Besides, in the experiment on parasitemia, the inhibition in vivo at 3 mg/kg was determined as 99.9% and the inhibition in vivo at 10 mg/kg turned out to be 99.9%.
The compound `Nc1ncc(-c2ccc(C(=O)N3CC[C@H](O)C3)cc2)nc1-c1ccc(C(F)(F)F)cc1` [Compound 36, (S)-(4-(5-amino-6-(4-(trifluoro-methyl)phenyl)pyrazin-2-yl)phenyl)(3-hydroxypyrrolidin-1-yl)methanone] displayed a concentration giving a half-maximal response (EC50) in the experiment with P. falciparum NF54 of 2.6 ng/mL (≈ 0.00607 µM). Besides, in the experiment with parasitemia, the inhibition in vivo at 3 mg/kg was determined as 99.9% and the inhibition in vivo at 10 mg/kg amounted to 99.9%.
